As a reminder, the IC50 is the concentration at which inhibition is half-maximal. High values mean lower potency, low ones higher potency.

The record followed here is ChEMBL document CHEMBL5727778, “Pyrimidine derivative and use thereof” (2020).

Bounds are passed on as bounds.

For the assay, the target named is ALK tyrosine kinase receptor (Homo sapiens, UniProt Q9UM73). The assay is described as follows: Inhibition Assay: 1× Kinase Buffer 50 mM HEPES. pH 7.5 0.0015% Brij-35 10 mM MgCl2 2 mM DTT 2) stop buffer 100 mM HEPES, pH 7.5 0.015% Brij-35 0.2% Coating Reagent #3 50 mM EDTAPrepare a Compound Solution to be Tested Step 2.1 Dilute the compound to 50× of the final desired highest inhibitor concentration in reaction by 100% DMSO. Transfer 100 μl of this compound dilution to a well in a 96-well plate. For example, if desired highest inhibitor concentration is 1 μM, then prepare 50 μM of compound DMSO solution in this step.
ALK tyrosine kinase receptor, sequence (Q9UM73 whole entry): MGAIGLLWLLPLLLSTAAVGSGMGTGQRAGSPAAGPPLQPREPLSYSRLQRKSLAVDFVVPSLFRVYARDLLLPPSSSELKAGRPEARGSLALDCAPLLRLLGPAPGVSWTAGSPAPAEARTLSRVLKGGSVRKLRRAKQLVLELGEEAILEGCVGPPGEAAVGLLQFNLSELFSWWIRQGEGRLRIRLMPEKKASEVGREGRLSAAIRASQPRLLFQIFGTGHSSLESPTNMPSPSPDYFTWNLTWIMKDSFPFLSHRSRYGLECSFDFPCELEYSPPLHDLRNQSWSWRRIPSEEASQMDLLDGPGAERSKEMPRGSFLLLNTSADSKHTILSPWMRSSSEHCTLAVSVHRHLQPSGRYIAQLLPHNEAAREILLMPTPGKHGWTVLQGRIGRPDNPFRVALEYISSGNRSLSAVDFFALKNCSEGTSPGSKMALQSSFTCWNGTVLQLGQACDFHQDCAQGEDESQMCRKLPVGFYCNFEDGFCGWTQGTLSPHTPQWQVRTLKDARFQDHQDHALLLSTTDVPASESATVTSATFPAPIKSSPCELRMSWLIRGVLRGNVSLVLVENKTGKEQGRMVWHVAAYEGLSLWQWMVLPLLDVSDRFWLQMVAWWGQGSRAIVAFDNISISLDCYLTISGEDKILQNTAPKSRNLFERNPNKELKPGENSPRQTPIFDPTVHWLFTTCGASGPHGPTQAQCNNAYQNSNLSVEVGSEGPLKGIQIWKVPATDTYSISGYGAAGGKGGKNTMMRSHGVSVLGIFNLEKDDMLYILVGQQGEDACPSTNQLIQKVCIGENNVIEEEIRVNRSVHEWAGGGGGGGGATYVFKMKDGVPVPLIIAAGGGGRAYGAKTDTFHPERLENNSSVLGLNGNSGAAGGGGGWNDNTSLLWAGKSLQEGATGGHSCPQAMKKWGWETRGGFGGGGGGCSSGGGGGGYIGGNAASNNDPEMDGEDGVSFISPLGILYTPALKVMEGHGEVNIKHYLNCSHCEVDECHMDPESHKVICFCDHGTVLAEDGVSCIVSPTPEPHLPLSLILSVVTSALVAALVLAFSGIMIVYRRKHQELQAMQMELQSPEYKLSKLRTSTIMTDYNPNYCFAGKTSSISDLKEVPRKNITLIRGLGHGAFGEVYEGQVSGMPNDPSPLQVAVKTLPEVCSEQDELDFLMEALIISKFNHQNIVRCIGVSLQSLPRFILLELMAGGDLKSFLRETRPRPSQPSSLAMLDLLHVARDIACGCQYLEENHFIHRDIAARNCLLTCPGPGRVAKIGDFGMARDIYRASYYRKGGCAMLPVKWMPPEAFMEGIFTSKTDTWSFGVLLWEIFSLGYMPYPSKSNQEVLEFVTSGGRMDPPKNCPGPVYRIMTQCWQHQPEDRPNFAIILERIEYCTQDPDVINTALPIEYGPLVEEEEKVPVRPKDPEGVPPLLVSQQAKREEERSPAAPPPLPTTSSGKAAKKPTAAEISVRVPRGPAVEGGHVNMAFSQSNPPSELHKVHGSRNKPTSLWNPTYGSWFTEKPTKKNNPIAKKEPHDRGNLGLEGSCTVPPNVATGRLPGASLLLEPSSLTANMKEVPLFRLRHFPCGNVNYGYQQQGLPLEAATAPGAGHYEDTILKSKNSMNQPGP

Molecule `COc1cc(N2CCC(N(C)C)CC2)ccc1Nc1ncc(Cl)c(Nc2ccsc2S(=O)(=O)C(C)C)n1` displayed an IC50 of less than 1 nM.
As for `COc1cc(N2CCC(N3CCC(N(C)C)CC3)CC2)ccc1Nc1ncc(Cl)c(Nc2ccccc2S(=O)(=O)C(C)C)n1`, the figure is less than 1 nM; as for `COc1cc(N2CCN(C)CC2)ccc1Nc1ncc(Cl)c(Nc2ccsc2S(=O)(=O)C(C)C)n1`, less than 1 nM; as for `COc1cc(N2CCC(O)CC2)ccc1Nc1ncc(Cl)c(Nc2ccsc2S(=O)(=O)C(C)C)n1`, less than 1 nM.
As for `COc1cc(N2CCOCC2)ccc1Nc1ncc(Cl)c(Nc2ccsc2S(=O)(=O)C(C)C)n1`, the figure is less than 1 nM; as for `COc1cc(N2CCC(N3CCOCC3)CC2)ccc1Nc1ncc(Cl)c(Nc2ccsc2S(=O)(=O)C(C)C)n1`, less than 1 nM; as for `COc1cc(N2CCN(C)CC2)ccc1Nc1ncc(Cl)c(Nc2ccccc2S(=O)(=O)C(C)C)n1`, less than 1 nM.
As for `CC(C)S(=O)(=O)c1ccccc1Nc1nc(Nc2ccc(N3CCC(N(C)C)CC3)cc2OC(F)F)ncc1Cl`, the figure is less than 1 nM.
`COc1cc(N2CCC(N(C)C)CC2)ccc1Nc1ncc(Cl)c(Nc2ccccc2S(=O)(=O)C(C)C)n1` displayed a half-inhibitory concentration (IC50) of less than 1 nM.
